According to patent US11697648B2, “Fused pyrimidine pyridinone compounds as JAK inhibitors” (THERAVANCE BIOPHARMA R&D IP, LLC, priority 2019, dated 2023):

What was measured:
[1] = biological target: JAK1 (Homo sapiens (Human), UniProt P23458); test: Biochemical JAK1 kinase assay (LanthaScreen)
Method in brief: (§1)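 GST-JAK + GFP-STAT1 peptide, HEPES pH 7.5/MgCl2/EGTA/Brij-35 buffer; cpd preincubation 1 h RT; ATP start, 1 h RT; stop with 10 mM EDTA + 2 nM Tb-anti-pSTAT1; TR-FRET 520/495. 4-parameter IC50 → pKi (Cheng-Prusoff).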

[2] = biological target: Tyk2 (Homo sapiens (Human), UniProt P29597); test: Biochemical Tyk2 kinase assay (LanthaScreen)
Tyk2, sequence (P29597 whole entry): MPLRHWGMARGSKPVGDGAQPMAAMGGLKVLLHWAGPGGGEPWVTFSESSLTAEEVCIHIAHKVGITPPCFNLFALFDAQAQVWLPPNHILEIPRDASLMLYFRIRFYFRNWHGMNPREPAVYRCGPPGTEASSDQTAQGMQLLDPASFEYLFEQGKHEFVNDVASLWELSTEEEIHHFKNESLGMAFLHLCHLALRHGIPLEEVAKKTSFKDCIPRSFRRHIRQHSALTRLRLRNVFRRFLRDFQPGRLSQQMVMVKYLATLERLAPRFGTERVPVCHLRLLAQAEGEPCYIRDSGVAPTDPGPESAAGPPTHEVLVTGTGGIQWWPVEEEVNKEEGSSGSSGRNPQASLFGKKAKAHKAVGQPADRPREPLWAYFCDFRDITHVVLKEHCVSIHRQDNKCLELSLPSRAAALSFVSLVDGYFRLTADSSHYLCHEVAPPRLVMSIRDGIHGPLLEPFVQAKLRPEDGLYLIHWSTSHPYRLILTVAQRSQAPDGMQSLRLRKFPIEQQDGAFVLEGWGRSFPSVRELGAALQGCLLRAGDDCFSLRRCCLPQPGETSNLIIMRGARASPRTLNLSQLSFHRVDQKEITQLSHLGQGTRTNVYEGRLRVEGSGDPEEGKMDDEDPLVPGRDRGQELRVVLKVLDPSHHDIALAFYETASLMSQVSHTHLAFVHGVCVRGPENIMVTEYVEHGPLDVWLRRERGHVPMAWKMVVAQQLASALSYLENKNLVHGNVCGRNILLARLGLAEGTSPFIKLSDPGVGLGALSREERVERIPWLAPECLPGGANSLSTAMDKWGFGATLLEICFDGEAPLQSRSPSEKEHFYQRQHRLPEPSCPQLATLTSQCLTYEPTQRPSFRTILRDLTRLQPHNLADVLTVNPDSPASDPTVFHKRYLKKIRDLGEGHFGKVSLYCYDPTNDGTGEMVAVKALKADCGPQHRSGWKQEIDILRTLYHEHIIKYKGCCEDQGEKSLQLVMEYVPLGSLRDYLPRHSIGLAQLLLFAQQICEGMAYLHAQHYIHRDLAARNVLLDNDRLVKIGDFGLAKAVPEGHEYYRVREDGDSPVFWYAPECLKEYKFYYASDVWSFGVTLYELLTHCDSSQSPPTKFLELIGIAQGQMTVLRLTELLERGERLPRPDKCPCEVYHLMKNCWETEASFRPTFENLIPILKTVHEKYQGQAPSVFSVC
Method in brief: as §1

[3] = system: Caco-2 cell monolayers; test: Caco-2 permeation assay; type: in vitro ADME; conditions: 5 μM, A-B direction, with Verapamil (25 μM)
Experimental: Assay 4: Caco-2 Permeation Assay
The Caco-2 permeation assay was performed to model the ability of test compounds to pass through the intestine and get into the blood stream after oral administration. The rate at which test compounds in solution permeate a cell monolayer designed to mimic the tight junction of human small intestinal monolayers was determined.
CacoReady 24-well transwell plates were obtained from ADMEcell (Alameda, Calif.). The compounds were evaluated at a concentration of 5 μM from 10 mM DMSO stock solutions in duplicate (n=2). The passive permeability of the compounds tested was evaluated using Caco-2 cell monolayers along with Verapamil (25 μM) to inhibit P-gp transport proteins in the apical to basolateral (A-B) direction. The experiment was conducted in a 37° C., 5% CO2 incubator. Caco-2 culture media consisted of standard filtered DMEM, FCS 10%, L-Glutamine 1% and PenStrep 1%. Basal assay plate was prepared by adding 750 μL of transport buffer to A-B wells. A CacoReady™ plate was prepared by removing the Caco-2 media from the apical wells and replacing with fresh transport media (200 μL repeated for a total of 3 washes). Blank media (200 μL) was then replaced with diluted compound for A-B wells. To begin the incubation, the basal plate was removed from the incubator and the apical section was added on top of it. Samples (40 μL) were collected from the apical and basal compartments for time zero (t0). Samples were collected again after 120 minutes (t120) from the apical and basal compartments. All samples were diluted and prepared for bioanalysis by LC-MS/MS. The permeation coefficient (Kp, mean A to B+ Verapamil Papparent) in cm/sec was calculated as dQ (flux)/(dt×Area×concentration).
In this assay, a Kp value less than about 5×10^−6 cm/sec is considered favorable to minimize systemic exposure and target the colon. A Kp value less than about 10×10^−6 cm/sec may also be sufficient to minimize systemic exposure and target the colon.

[4] = biological target: JAK3 (Homo sapiens (Human), UniProt P52333); test: Biochemical JAK3 kinase assay (LanthaScreen); conditions: for JAK3 (pKi)-JAK1 (pKi): selectivity JAK3 over JAK1, difference of pKi
JAK3, sequence (P52333 whole entry): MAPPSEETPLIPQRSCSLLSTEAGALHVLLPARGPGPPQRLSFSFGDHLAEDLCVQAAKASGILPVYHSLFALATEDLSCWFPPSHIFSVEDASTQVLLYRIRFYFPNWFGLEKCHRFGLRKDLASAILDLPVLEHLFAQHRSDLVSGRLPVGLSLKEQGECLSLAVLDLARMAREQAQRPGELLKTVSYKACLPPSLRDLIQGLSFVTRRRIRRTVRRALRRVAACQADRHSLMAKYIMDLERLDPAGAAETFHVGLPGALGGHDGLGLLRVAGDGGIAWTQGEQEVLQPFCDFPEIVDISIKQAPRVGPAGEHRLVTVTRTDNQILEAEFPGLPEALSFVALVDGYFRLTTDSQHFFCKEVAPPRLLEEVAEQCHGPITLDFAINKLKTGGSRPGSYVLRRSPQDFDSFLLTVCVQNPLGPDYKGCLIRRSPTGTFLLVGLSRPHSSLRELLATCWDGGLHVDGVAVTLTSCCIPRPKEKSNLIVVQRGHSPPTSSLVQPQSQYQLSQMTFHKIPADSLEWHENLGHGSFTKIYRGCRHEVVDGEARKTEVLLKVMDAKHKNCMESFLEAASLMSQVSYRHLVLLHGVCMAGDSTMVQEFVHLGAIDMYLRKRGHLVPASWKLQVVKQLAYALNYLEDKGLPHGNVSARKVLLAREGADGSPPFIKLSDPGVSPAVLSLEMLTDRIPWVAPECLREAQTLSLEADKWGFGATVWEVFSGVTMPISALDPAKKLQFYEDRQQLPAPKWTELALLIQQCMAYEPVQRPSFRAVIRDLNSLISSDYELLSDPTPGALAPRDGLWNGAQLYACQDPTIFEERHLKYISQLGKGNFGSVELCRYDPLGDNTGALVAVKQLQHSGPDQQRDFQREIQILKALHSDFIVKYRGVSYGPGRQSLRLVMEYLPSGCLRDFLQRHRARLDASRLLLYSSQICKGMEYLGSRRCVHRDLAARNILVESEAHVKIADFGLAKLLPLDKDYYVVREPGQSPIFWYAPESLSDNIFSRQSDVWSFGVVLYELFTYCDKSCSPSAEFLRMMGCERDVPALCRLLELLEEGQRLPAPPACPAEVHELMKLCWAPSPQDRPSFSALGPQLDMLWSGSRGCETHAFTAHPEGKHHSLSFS
Method in brief: as §1

[5] = biological target: JAK2 (Homo sapiens (Human), UniProt O60674); test: Biochemical JAK2 kinase assay (LanthaScreen)
JAK2, sequence (O60674 whole entry): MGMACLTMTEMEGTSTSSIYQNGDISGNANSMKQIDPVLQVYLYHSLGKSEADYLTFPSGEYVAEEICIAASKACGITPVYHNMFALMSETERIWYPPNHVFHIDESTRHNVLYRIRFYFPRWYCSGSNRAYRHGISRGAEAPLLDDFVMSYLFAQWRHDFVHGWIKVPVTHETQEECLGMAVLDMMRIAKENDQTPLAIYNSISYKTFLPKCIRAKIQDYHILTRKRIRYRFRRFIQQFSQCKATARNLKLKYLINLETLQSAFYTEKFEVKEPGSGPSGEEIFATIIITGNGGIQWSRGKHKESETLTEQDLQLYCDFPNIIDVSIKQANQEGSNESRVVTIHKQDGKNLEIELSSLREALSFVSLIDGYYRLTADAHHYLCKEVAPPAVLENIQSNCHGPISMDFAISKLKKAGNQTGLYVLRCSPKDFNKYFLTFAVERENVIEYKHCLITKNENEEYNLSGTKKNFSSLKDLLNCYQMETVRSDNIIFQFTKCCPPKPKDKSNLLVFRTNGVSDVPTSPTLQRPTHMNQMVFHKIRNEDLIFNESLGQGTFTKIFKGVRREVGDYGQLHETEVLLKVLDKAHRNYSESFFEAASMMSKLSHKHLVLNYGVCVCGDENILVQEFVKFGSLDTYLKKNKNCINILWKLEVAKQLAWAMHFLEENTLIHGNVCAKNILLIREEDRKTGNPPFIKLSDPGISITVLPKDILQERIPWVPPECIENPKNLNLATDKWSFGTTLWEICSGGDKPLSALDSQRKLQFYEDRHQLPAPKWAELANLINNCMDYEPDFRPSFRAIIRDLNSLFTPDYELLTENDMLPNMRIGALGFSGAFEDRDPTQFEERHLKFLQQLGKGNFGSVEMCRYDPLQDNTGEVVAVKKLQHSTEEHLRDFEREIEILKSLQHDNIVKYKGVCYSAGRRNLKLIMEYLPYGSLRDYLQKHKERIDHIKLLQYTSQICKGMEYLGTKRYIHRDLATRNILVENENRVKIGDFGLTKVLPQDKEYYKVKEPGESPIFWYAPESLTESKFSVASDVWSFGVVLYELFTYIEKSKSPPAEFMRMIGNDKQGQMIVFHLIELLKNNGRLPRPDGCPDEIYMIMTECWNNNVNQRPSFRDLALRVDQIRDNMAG
Method in brief: as §1

[6] = system: IL-2 stimulated STAT5 phosphorylation in Tall-1 human T cell line (JAK3); test: Cellular JAK3 potency assay: inhibition of IL-2 stimulated pSTAT5 in Tall-1 T cells; type: cell-based; conditions: IL-2 stimulated pSTAT5, Tall-1 T cells
Method in brief: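 AlphaLISA SureFire Ultra measures STAT5 Tyr694/699 phosphorylation in lysed Tall-1 human T cells. Cells were exposed to compound for 1 h at 37 °C before a 30 min IL-2 challenge (300 ng/ml final). Values are pIC50 means with standard deviation from signal-versus-concentration curves.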

JAK1, sequence (P23458 whole entry): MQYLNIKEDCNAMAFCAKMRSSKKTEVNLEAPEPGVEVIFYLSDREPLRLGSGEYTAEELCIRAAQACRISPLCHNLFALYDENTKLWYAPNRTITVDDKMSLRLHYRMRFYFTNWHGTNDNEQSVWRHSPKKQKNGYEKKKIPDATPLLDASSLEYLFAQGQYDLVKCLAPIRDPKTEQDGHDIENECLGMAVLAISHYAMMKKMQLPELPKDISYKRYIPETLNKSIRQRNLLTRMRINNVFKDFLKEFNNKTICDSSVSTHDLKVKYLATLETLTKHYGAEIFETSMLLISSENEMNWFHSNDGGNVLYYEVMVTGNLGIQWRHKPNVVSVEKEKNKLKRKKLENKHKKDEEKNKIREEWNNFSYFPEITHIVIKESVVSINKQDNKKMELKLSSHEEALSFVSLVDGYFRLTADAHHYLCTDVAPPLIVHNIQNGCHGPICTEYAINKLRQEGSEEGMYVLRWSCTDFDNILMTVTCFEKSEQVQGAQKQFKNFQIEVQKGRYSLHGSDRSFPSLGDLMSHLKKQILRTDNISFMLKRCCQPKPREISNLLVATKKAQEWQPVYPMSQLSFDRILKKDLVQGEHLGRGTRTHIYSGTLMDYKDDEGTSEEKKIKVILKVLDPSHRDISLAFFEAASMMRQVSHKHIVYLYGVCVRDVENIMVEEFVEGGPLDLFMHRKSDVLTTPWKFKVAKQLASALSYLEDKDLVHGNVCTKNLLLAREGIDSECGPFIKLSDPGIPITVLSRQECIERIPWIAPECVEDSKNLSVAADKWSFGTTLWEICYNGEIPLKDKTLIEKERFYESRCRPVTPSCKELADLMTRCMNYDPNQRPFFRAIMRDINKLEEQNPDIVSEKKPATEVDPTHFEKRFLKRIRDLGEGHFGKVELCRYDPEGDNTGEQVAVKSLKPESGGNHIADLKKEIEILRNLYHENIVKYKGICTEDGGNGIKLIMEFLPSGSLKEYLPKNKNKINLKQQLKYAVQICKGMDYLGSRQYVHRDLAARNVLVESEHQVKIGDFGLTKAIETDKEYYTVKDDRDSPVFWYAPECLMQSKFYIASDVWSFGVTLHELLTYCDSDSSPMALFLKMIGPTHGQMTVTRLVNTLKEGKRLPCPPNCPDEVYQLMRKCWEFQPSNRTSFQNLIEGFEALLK

SMILES | JAK 1 (pKi) [1] | Tyk 2 (pKi) [2] | Caco Kp [3] | JAK 3 (pKi) [4] | JAK3 (pKi)-JAK1 (pKi) [4] | JAK 2 (pKi) [5] | Tall-1 (pIC50) [6]
C=CC(=O)N1CCN(CCn2c(=O)ccc3cnc(Nc4cnn(C)c4)nc32)CC1 [Example 16] | E (E represents a pKi value of 7 or below (Ki of 100 nM or above)) | E (E represents a pKi value of 7 or below (Ki of 100 nM or above)) | A (A represents a value below 5×10^−6 cm/sec) | B (B represents pKi value between 9 and 10 (Ki between 1 nM and 0.1 nM)) | A (A represents a value of 3 or above) | E (E represents a pKi value of 7 or below (Ki of 100 nM or above)) | C (C represents a pIC50 value between 6 and 6.7 (IC50 between 1 μM and 200 nM))
C=CC(=O)N1CC(CCn2c(=O)ccc3cnc(Nc4ccc(N5CCN(C(=O)C(C)(C)O)CC5)cc4)nc32)C1 [Example 138] | E (E represents a pKi value of 7 or below (Ki of 100 nM or above)) | E (E represents a pKi value of 7 or below (Ki of 100 nM or above)) | A (A represents a value below 5×10^−6 cm/sec) | A (A represents a pKi value≥10 (Ki≤0.1 nM)) | A (A represents a value of 3 or above) | D (D represents a pKi value between 7 and 8 (Ki between 100 nM and 10 nM)) | B (B represents a pC50 value between 6.7 (included) and 7.5 (IC50 between 200 nM and 32 nM))
C=CC(=O)N1CC(CCn2c(=O)ccc3cnc(Nc4cccc(OC)c4)nc32)C1 [Example 19] | E (E represents a pKi value of 7 or below (Ki of 100 nM or above)) | E (E represents a pKi value of 7 or below (Ki of 100 nM or above)) | C (C represents a value between 10×10^−6 and 30×10^−6 cm/sec) | B (B represents pKi value between 9 and 10 (Ki between 1 nM and 0.1 nM)) | A (A represents a value of 3 or above) | E (E represents a pKi value of 7 or below (Ki of 100 nM or above)) | C (C represents a pIC50 value between 6 and 6.7 (IC50 between 1 μM and 200 nM))
C=CC(=O)N1CC(CCn2c(=O)ccc3cnc(Nc4cccc(CN5CCSCC5)c4)nc32)C1 [Example 85] | E (E represents a pKi value of 7 or below (Ki of 100 nM or above)) | E (E represents a pKi value of 7 or below (Ki of 100 nM or above)) | C (C represents a value between 10×10^−6 and 30×10^−6 cm/sec) | A (A represents a pKi value≥10 (Ki≤0.1 nM)) | A (A represents a value of 3 or above) | E (E represents a pKi value of 7 or below (Ki of 100 nM or above)) | B (B represents a pC50 value between 6.7 (included) and 7.5 (IC50 between 200 nM and 32 nM))
C=CC(=O)N1CC(CCn2c(=O)ccc3cnc(Nc4ccc(N5CCN(C)CC5)c(O)c4)nc32)C1 [Example 136] | E (E represents a pKi value of 7 or below (Ki of 100 nM or above)) | E (E represents a pKi value of 7 or below (Ki of 100 nM or above)) | A (A represents a value below 5×10^−6 cm/sec) | B (B represents pKi value between 9 and 10 (Ki between 1 nM and 0.1 nM)) | A (A represents a value of 3 or above) | E (E represents a pKi value of 7 or below (Ki of 100 nM or above)) | A (A represents a pIC50 value≥7.5 (IC50≤32 nM))
C=CC(=O)N1CC(CCn2c(=O)ccc3cnc(Nc4ccc(-n5cccn5)cc4)nc32)C1 [Example 66] | E (E represents a pKi value of 7 or below (Ki of 100 nM or above)) | E (E represents a pKi value of 7 or below (Ki of 100 nM or above)) | C (C represents a value between 10×10^−6 and 30×10^−6 cm/sec) | B (B represents pKi value between 9 and 10 (Ki between 1 nM and 0.1 nM)) | A (A represents a value of 3 or above) | E (E represents a pKi value of 7 or below (Ki of 100 nM or above)) | B (B represents a pC50 value between 6.7 (included) and 7.5 (IC50 between 200 nM and 32 nM))
